What all share (assay): relative viability (nuclei count vs DMSO), 5 days (fraction); higher = more cells survive
Compound in the test “GSK126 + Dasatinib”: CC[C@H](C)N1C=C(C2=C(C=C(C=C21)C3=CN=C(C=C3)N4CCNCC4)C(=O)NCC5=C(C=C(NC5=O)C)C)C [GSK126] + Cc1nc(Nc2ncc(C(=O)Nc3c(C)cccc3Cl)s2)cc(N2CCN(CCO)CC2)n1 [Dasatinib] (partner 0.075 µM)
In a few lines: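 Cells from lung cancer lines were seeded into 1536-well plates and, one day later, dosed by pin tool. Treatments were either a single drug or a fixed dose of an anchor drug with five library-drug doses (not always all listed) in √10 steps. After 5 days, nuclei were stained in a one-step fixation (final 0.05% Triton X-100, 1% formaldehyde, 1 ug/ml Hoechst) and counted on 4× images, and relative viability is the treated-to-vehicle nuclei ratio, as the median of duplicate plates.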

Compound in the next test: C1CC(C1)(C(=O)O)C(=O)O.[NH2-].[NH2-].[Pt+2] [Carboplatin]
In short, it runs like this:
(§1)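 Lung cancer cell lines in 1536-well plates were kept overnight at 37 °C, then pinned with five library-drug doses (not always all listed) spaced by √10 on vehicle-anchored plates. After 5 days without medium change, cells were fixed, permeabilised and Hoechst-stained in one step, imaged at 4×, and nuclei were counted with MetaXpress. Viability is treated-well nuclei divided by vehicle-well nuclei, taken as the median over plates. Plates passed only with control CV below 25% and at least one doubling.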

Compound in another test: NS(=O)(=O)OC[C@@H]1C[C@@H](n2ccc3c(N[C@H]4CCc5ccccc54)ncnc32)C[C@@H]1O [MLN4924]
In short, it runs like this:
as §1

Compound in a further test: CC[C@H](C)N1C=C(C2=C(C=C(C=C21)C3=CN=C(C=C3)N4CCNCC4)C(=O)NCC5=C(C=C(NC5=O)C)C)C [GSK126]
In a few lines:
as §1

Data on five cell lines can be found in the supplement of paper PMC10307832.

In the case of NCI-H2087, the relative viability with GSK126 + Dasatinib (first compound 0.08 µM) was determined as 1.14; in the test with GSK126 + Dasatinib (first compound 0.253 µM), 0.707; in the test with GSK126 + Dasatinib (first compound 0.8 µM), 0.856; with GSK126 + Dasatinib (first compound 2.53 µM), 0.78; with GSK126 + Dasatinib (first compound 8 µM) it was 0.908; with Carboplatin (0.08 µM), 1.14. The relative viability with Carboplatin (0.253 µM) was determined as 1.21; in the test with Carboplatin (0.8 µM), 0.997; with Carboplatin (2.53 µM), 0.999; in the test with Carboplatin (8 µM) it was 0.711; with MLN4924 (0.04 µM), 1.02; in the test with MLN4924 (0.1265 µM) it was 0.969. Besides, the relative viability in the test with MLN4924 (0.4 µM) stood at 0.491; with MLN4924 (1.265 µM) it was 0.16; in the test with MLN4924 (4 µM), 0.0937; with GSK126 (0.08 µM), 1.18; with GSK126 (0.253 µM), 0.945; with GSK126 (0.8 µM), 1. Moreover, the relative viability came to 1.15 with GSK126 (2.53 µM) and 1.17 in the test with GSK126 (8 µM).
Take NCI-H2126: the relative viability is 0.656 with GSK126 + Dasatinib (first compound 0.08 µM); 0.661 with GSK126 + Dasatinib (first compound 0.253 µM); 0.644 with GSK126 + Dasatinib (first compound 0.8 µM); 0.671 with GSK126 + Dasatinib (first compound 2.53 µM); 0.494 with GSK126 + Dasatinib (first compound 8 µM); 1.05 with Carboplatin (0.08 µM). The relative viability was found to be 1.03 with Carboplatin (0.253 µM); 1.02 with Carboplatin (0.8 µM); 0.946 with Carboplatin (2.53 µM); 0.948 in the test with Carboplatin (8 µM); 1.03 with MLN4924 (0.04 µM); 1.02 with MLN4924 (0.1265 µM). Moreover, the relative viability with MLN4924 (0.4 µM) was 0.785; in the test with MLN4924 (1.265 µM) it was 0.459; with MLN4924 (4 µM) it was 0.373; with GSK126 (0.08 µM), 1.04; with GSK126 (0.253 µM), 1.02; in the test with GSK126 (0.8 µM), 1.06. In addition, the relative viability in the test with GSK126 (2.53 µM) came to 1.07; with GSK126 (8 µM), 1.
Consider NCI-H2170, for which the relative viability came out at 0.544 with GSK126 + Dasatinib (first compound 0.08 µM); 0.533 in the test with GSK126 + Dasatinib (first compound 0.253 µM); 0.574 with GSK126 + Dasatinib (first compound 0.8 µM); 0.612 with GSK126 + Dasatinib (first compound 2.53 µM); 0.686 in the test with GSK126 + Dasatinib (first compound 8 µM); 0.957 with Carboplatin (0.08 µM). Besides, the relative viability was 0.944 in the test with Carboplatin (0.253 µM); 0.972 with Carboplatin (0.8 µM); 0.964 with Carboplatin (2.53 µM); 0.864 with Carboplatin (8 µM); 1 with MLN4924 (0.04 µM); 0.92 in the test with MLN4924 (0.1265 µM). Moreover, the relative viability was found to be 0.406 with MLN4924 (0.4 µM); 0.164 in the test with MLN4924 (1.265 µM); 0.197 with MLN4924 (4 µM); 1.03 in the test with GSK126 (0.08 µM); 1.05 with GSK126 (0.253 µM); 0.881 in the test with GSK126 (0.8 µM). The relative viability with GSK126 (2.53 µM) amounted to 1.03; with GSK126 (8 µM), 0.932.
For NCI-H2228, the relative viability came out at 0.597 with GSK126 + Dasatinib (first compound 0.08 µM); 0.513 with GSK126 + Dasatinib (first compound 0.253 µM); 0.522 with GSK126 + Dasatinib (first compound 0.8 µM); 0.562 in the test with GSK126 + Dasatinib (first compound 2.53 µM); 0.493 in the test with GSK126 + Dasatinib (first compound 8 µM); 1.27 with Carboplatin (0.08 µM). In addition, the relative viability in the test with Carboplatin (0.253 µM) worked out at 1.16; with Carboplatin (0.8 µM) it was 0.91; with Carboplatin (2.53 µM), 0.941; in the test with Carboplatin (8 µM), 0.687; with MLN4924 (0.04 µM), 0.723; with MLN4924 (0.1265 µM) it was 1.08. Further, the relative viability with MLN4924 (0.4 µM) was determined as 0.435; with MLN4924 (1.265 µM), 0.171; with MLN4924 (4 µM), 0.205; with GSK126 (0.08 µM), 1.21; in the test with GSK126 (0.253 µM) it was 0.992; with GSK126 (0.8 µM), 1.04. Moreover, the values for the relative viability with GSK126 (2.53 µM) and with GSK126 (8 µM) were 1.12 and 1.07, respectively.
For the cell line NCI-H2342, the relative viability with GSK126 + Dasatinib (first compound 0.08 µM) stood at 0.358; in the test with GSK126 + Dasatinib (first compound 0.253 µM) it was 0.288; with GSK126 + Dasatinib (first compound 0.8 µM), 0.312; with GSK126 + Dasatinib (first compound 2.53 µM), 0.314; with GSK126 + Dasatinib (first compound 8 µM), 0.315; in the test with Carboplatin (0.08 µM), 1.06. For the same cell line, the relative viability came to 0.987 with Carboplatin (0.253 µM); 1.07 with Carboplatin (0.8 µM); 1.02 in the test with Carboplatin (2.53 µM); 0.873 with Carboplatin (8 µM); 1.18 with MLN4924 (0.04 µM); 0.931 with MLN4924 (0.1265 µM). The relative viability in the test with MLN4924 (0.4 µM) worked out at 0.97; in the test with MLN4924 (1.265 µM) it was 0.788; with MLN4924 (4 µM), 0.57; with GSK126 (0.08 µM), 1.12; with GSK126 (0.253 µM) it was 1.04; with GSK126 (0.8 µM) it was 1.07. Moreover, the results for the relative viability with GSK126 (2.53 µM) and with GSK126 (8 µM) were 1.05 and 1.17, respectively.
